Laboratory results from patent publication US20190183798A1, “METHOD FOR TREATING TUMOR” (Johnpro Biotech Inc., priority 2016, published 2019).

How the values were obtained:
[1] = test system: HepG2 cells; assay: Absorption of dextran, CT-B or transferrin in HepG2 cells under specified treatments (flow cytometry), with or without wortmannin; type: cell-based
Experimental: In the treatment of wortmannin, an inhibitor of macropinocytosis pathway, the HepG2 cells were treated with phosphate-buffered saline (PBS) or wortmannin at 37° C. for 15 minutes. After the administration of dextran, the cells were applied with 37° C. treatment, 42° C. treatment or mEHT treatment for 1 hour.
The cells were analyzed by flow cytometry.

[2] = test system: HepG2 cells; assay: Absorption/retention of lipo-dox in HepG2 cells under specified treatments (flow cytometry, confocal microscopy); conditions: 37° C., 42° C. and mEHT treatments compared

With dextran the “Absorption of dextran to the cells compared with control group” value ([1]; all treatment groups (37° C., 42° C. and mEHT), 1 mg/ml dextran) was “enhanced absorption” and the “Fluorescence signal of dextran in cells treated with mEHT” value ([1]; mEHT treatment versus 37° C. and 42° C. treatments) was “highest fluorescence signals”.

With “CT-B: particle about 100 nm used as tested drug for endocytosis uptake” the “Absorption of CT-B by the cell compared with control group” value ([1]; all treatment groups (37° C., 42° C. and mEHT), 2 μg/ml CT-B) was “enhanced absorption”.

With COc1cccc2c1C(=O)c1c(O)c3c(c(O)c1C2=O)C[C@@](O)(C(=O)CO)C[C@@H]3O[C@H]1C[C@H](N)[C@H](O)[C@H](C)O1 [dox, doxorubicin] the “Enhancement of the absorption of dox without liposome encapsulation” value [2] was “no obvious difference among the tested treatments”.

For transferrin, the “Absorption of transferrin by the cell compared with control group” value ([1]; all treatment groups (37° C., 42° C. and mEHT), 5 μg/ml transferrin) was “enhanced absorption”.
